Test results published in PubChem BioAssay AID1259408 (Genetic Toxicology Data Bank (GENE-TOX), 2018).
Calls of active or inactive are those of the source. How the calls were made is not given here.

Test system: GENE-TOX genotoxicity assays, various organisms and cells
Assay: GENE-TOX mutagenicity studies
Conditions: for call: Assay Type: In vivo carcinogenicity studies
[1] = Species/Cell Type: Human lymphocytes, Assay Type: Sister-chromatid exchange (SCE) in vitro, Assay Code: SCL+, Evaluation Type: Evaluation B (Post-1980)
[2] = Species/Cell Type: Human, Assay Type: Sister-chromatid exchange (SCE) in vitro, Assay Code: SC1+, Evaluation Type: Evaluation B (Post-1980)
[3] = Species/Cell Type: Mammalian polychromatic erythrocytes, Assay Type: Micronucleus test, chromosome aberrations, Assay Code: MNTT, Evaluation Type: Evaluation B (Post-1980)
[4] = Species/Cell Type: Salmonella typhimurium (one or more of the five standard strains: TA98, TA100, TA1535, TA1537, and TA1538), Assay Type: Histidine reverse gene mutation, Ames assay, Assay Code: SAL+*, Activation: With metabolic activation, Evaluation Type: Evaluation A (Pre-1980)
[5] = Species/Cell Type: Nonhuman, Assay Code: CCG+, Evaluation Type: Evaluation A (Pre-1980)
[6] = Species/Cell Type: Fischer rat embryo (RLV/1706) cells, Assay Type: Cell transformation, viral enhanced, Assay Code: CTR-, Evaluation Type: Evaluation A (Pre-1980)
[7] = Species/Cell Type: Salmonella typhimurium (one or more of the five standard strains: TA98, TA100, TA1535, TA1537, and TA1538), Assay Type: Histidine reverse gene mutation, Ames assay, Assay Code: SAL+, Evaluation Type: Evaluation A (Pre-1980)
[8] = Species/Cell Type: Salmonella typhimurium, Assay Type: Forward and reverse gene mutation, host-mediated assay, Assay Code: HMA+, Evaluation Type: Evaluation A (Pre-1980)
[9] = Species/Cell Type: Drosophila melanogaster, Assay Type: Sex-linked recessive lethal gene mutation, Assay Code: SRLT, Evaluation Type: Evaluation A (Pre-1980)
[10] = Species/Cell Type: Salmonella typhimurium (one or more of the five standard strains: TA98, TA100, TA1535, TA1537, and TA1538), Assay Type: Histidine reverse gene mutation, Ames assay, Assay Code: SALT, Evaluation Type: Evaluation A (Pre-1980)
[11] = Species/Cell Type: Bacillus subtilis (H17 vs M45), Assay Type: Rec-assay, spot test, DNA effects (bacterial DNA repair), Assay Code: REW-, Evaluation Type: Evaluation A (Pre-1980)
[12] = Species/Cell Type: Mammalian polychromatic erythrocytes, Assay Type: Micronucleus test, chromosome aberrations, Assay Code: MNT+, Evaluation Type: Evaluation B (Post-1980)

SMILES: Oc1cccc2cccnc12
- mutagenic call [1]: active; positive
- mutagenic call [2]: active; positive
- mutagenic call [3]: no conclusion
- mutagenic call (Species/Cell Type: Neurospora crassa, Assay Type: Aneuploidy, chromosome aberrations, Assay Code: NEN-, Evaluation Type: Evaluation A (Pre-1980)): inactive; negative
- call (Species/Cell Type: Nonhuman, Assay Code: CCG-, Evaluation Type: Evaluation A (Pre-1980)): inactive; negative
- mutagenic call (Species/Cell Type: Saccharomyces cerevisiae, Assay Type: Mitotic recombination or gene conversion, Assay Code: YEC-, Evaluation Type: Evaluation A (Pre-1980)): inactive; negative
- mutagenic call [4]: active; positive
- mutagenic call (Species/Cell Type: Vicia faba, Assay Type: Chromosome aberrations, Assay Code: VIC+, Evaluation Type: Evaluation A (Pre-1980)): active; positive

SMILES: CC(C)CCC[C@@H](C)[C@H]1CC[C@H]2[C@@H]3CC=C4C[C@@H](OC(=O)Cc5ccc(N(CCCl)CCCl)cc5)CC[C@]4(C)[C@H]3CC[C@]12C
- call [5]: active; positive

SMILES: CCN(CC)CCn1nc2c3c(c(CO)ccc31)Sc1cc(Cl)ccc1-2
- mutagenic call (Species/Cell Type: Drosophila melanogaster, Assay Type: Sex-linked recessive lethal gene mutation, Assay Code: SRL-, Evaluation Type: Evaluation A (Pre-1980)): inactive; negative
- mutagenic call [6]: inactive; negative
- mutagenic call (Species/Cell Type: Mouse lymphoma (L5178Y) cells, Assay Type: Forward gene mutation at the thymidine kinase (TK) locus, chromosome aberrations, Assay Code: L51+, Evaluation Type: Evaluation A (Pre-1980)): active; positive
- mutagenic call (Species/Cell Type: Neurospora crassa, Assay Type: Forward gene mutation, Assay Code: NEF+, Evaluation Type: Evaluation A (Pre-1980)): active; positive
- mutagenic call (Species/Cell Type: Saccharomyces cerevisiae, Assay Type: Reverse gene mutation, Assay Code: YER+, Evaluation Type: Evaluation A (Pre-1980)): active; positive
- mutagenic call [7]: active; positive
- mutagenic call (Species/Cell Type: Salmonella typhimurium, Assay Type: Forward and reverse gene mutation, body fluid assay, Assay Code: BFU+, Evaluation Type: Evaluation A (Pre-1980)): active; positive
- mutagenic call [8]: active; positive

SMILES: [N-]=[N+]=CC(=O)NCC(N)=O
- mutagenic call (Species/Cell Type: Nonhuman, Assay Type: Sister-chromatid exchange (SCE) in vitro, Assay Code: SC2+D, Dose Response: With dose response, Evaluation Type: Evaluation B (Post-1980)): active; positive
- mutagenic call [7]: active; positive

SMILES: CN(C)c1ccc2nc3c(C(=O)O)cc(=O)c(O)c-3oc2c1
- mutagenic call [9]: no conclusion

SMILES: CN1CCC(=C2c3ccccc3C3OC3c3ccccc32)CC1 (centres undefined)
- mutagenic call [10]: no conclusion

SMILES: ClC1C(Cl)C(Cl)C(Cl)C(Cl)C1Cl (centres undefined)
- mutagenic call (Species/Cell Type: Allium cepa, Assay Type: Chromosome aberrations, Assay Code: ALC+D, Dose Response: With dose response, Evaluation Type: Evaluation A (Pre-1980)): active; positive
- mutagenic call [9]: no conclusion
- mutagenic call (Species/Cell Type: Hordeum vulgare (barley), Assay Type: Chromosome aberrations, Assay Code: HOC+D, Dose Response: With dose response, Evaluation Type: Evaluation A (Pre-1980)): active; positive
- call (Species/Cell Type: Nonhuman, Assay Code: CCG+L, Evaluation Type: Evaluation A (Pre-1980)): active; positive
- mutagenic call (Species/Cell Type: Saccharomyces cerevisiae, Assay Type: Mitotic recombination or gene conversion, Assay Code: YEC+, Evaluation Type: Evaluation A (Pre-1980)): active; positive
- mutagenic call (Species/Cell Type: Saccharomyces cerevisiae, Assay Type: Reverse gene mutation, Assay Code: YER-*, Activation: With metabolic activation, Evaluation Type: Evaluation A (Pre-1980)): inactive; negative
- mutagenic call (Species/Cell Type: Salmonella typhimurium, Serratia marcesens, Assay Type: Forward and reverse gene mutation, host-mediated assay, Assay Code: HM2T, Evaluation Type: Evaluation A (Pre-1980)): no conclusion
- mutagenic call (Species/Cell Type: Tradescantia species, Assay Type: Chromosome aberrations, Assay Code: TRC+D, Dose Response: With dose response, Evaluation Type: Evaluation A (Pre-1980)): active; positive
- mutagenic call (Species/Cell Type: Vicia faba, Assay Type: Chromosome aberrations, Assay Code: VIC+D, Dose Response: With dose response, Evaluation Type: Evaluation A (Pre-1980)): active; positive

SMILES: CC(=O)OC(c1ccc2c(c1)OCO2)C1CO1 (centres undefined)
- mutagenic call [7]: active; positive

SMILES: CCOC(=O)N(CCO)N=O
- mutagenic call [7]: active; positive

SMILES: CN[C@H]1Cc2c[nH]c3c(Cl)ccc(c23)[C@]12C=C(C)C(=O)O2
- mutagenic call [11]: inactive; negative

SMILES: COc1cc2c3c(cc(C)c2c2ccccc12)C(=O)CC3
- mutagenic call [4]: active; positive

SMILES: C=CCN(CC=C)N=O
- mutagenic call [4]: active; positive

SMILES: O[C@H]1[C@H]2c3cc4c(cc3CN3CCC(=C[C@@H]1O)[C@H]23)OCO4
- mutagenic call [12]: active; positive

SMILES: [Cl][Ag]
- mutagenic call [11]: inactive; negative

SMILES: Cc1ccc2ccccc2n1
- mutagenic call [4]: active; positive

SMILES: O=C(O)c1cc(N=Nc2ccc([N+](=O)[O-])cc2)ccc1O
- mutagenic call [10]: no conclusion

SMILES: O=C(O)c1ccc2c([N+](=O)[O-])cccc2n1
- mutagenic call [7]: active; positive

SMILES: C/[N+]([O-])=N/CO[C@@H]1O[C@H](CO)[C@@H](O)[C@H](O)[C@H]1O
- mutagenic call [9]: no conclusion
- call [5]: active; positive
- mutagenic call (Species/Cell Type: Salmonella typhimurium (one or more of the five standard strains: TA98, TA100, TA1535, TA1537, and TA1538), Assay Type: Histidine reverse gene mutation, Ames assay, Assay Code: SAL-, Evaluation Type: Evaluation A (Pre-1980)): inactive; negative
- mutagenic call [8]: active; positive

SMILES: CCCCCc1cc(O)c2c(c1)OC(C)(C)c1ccc(C)cc1-2
- mutagenic call [6]: inactive; negative
- mutagenic call (Species/Cell Type: Human lymphocytes, Assay Type: Sister-chromatid exchange (SCE) in vivo, Assay Code: SCY+, Evaluation Type: Evaluation B (Post-1980)): active; positive
- mutagenic call [12]: active; positive
- mutagenic call (Species/Cell Type: Mouse, Sex: Male, Assay Type: Sperm morphology, Assay Code: SPI+, Evaluation Type: Evaluation A (Pre-1980)): active; positive

SMILES: O=C1CCC(=O)N1CN1CCOCC1
- mutagenic call (Species/Cell Type: Arabidopsis species, Assay Type: Gene mutation, Assay Code: ARM-, Evaluation Type: Evaluation A (Pre-1980)): inactive; negative

SMILES: CC(CN(CC(=O)O)CC(=O)O)N(CC(=O)O)CC(=O)O (centres undefined)
- mutagenic call (Species/Cell Type: Chinese hamster lung (V79) cells, Assay Type: Forward gene mutation at the HPRT or ouabain locus, Assay Code: V79+, Evaluation Type: Evaluation A (Pre-1980)): active; positive

SMILES: CC(C)[N+](=O)[O-]
- mutagenic call (Species/Cell Type: Mammalian polychromatic erythrocytes, Assay Type: Micronucleus test, chromosome aberrations, Assay Code: MNTT, Evaluation Type: Evaluation A (Pre-1980)): no conclusion
- call [5]: active; positive

SMILES: O=S(=O)(O)c1cc(O)c2c(O)c(N=Nc3ccccc3)c(S(=O)(=O)O)cc2c1
- mutagenic call (Species/Cell Type: Bacillus subtilis (H17 vs M45), Assay Type: Rec-assay, spot test, DNA effects (bacterial DNA repair), Assay Code: REWT, Evaluation Type: Evaluation A (Pre-1980)): no conclusion

SMILES: COc1c(OC)c(O)c2c(=O)c(OC)c(-c3ccc(O)c(O)c3)oc2c1OC
- mutagenic call [12]: active; positive

SMILES: COc1cc(Cl)c(OC)cc1Cl
- mutagenic call (Species/Cell Type: Aspergillus nidulans, Assay Type: Aneuploidy, chromosome aberrations, Assay Code: ASN+, Evaluation Type: Evaluation A (Pre-1980)): active; positive
- mutagenic call (Species/Cell Type: Aspergillus nidulans, Assay Type: Mitotic recombination, Assay Code: ASG+, Evaluation Type: Evaluation A (Pre-1980)): active; positive

SMILES: CCCCCCCCCCCCN(C)N=O
- mutagenic call [4]: active; positive

SMILES: Nc1ccc2[nH]ncc2c1
- mutagenic call (Species/Cell Type: Rat, Sex: Male, Assay Type: Sperm morphology, Assay Code: SPA+, Evaluation Type: Evaluation A (Pre-1980)): active; positive

SMILES: N=C(N)SCCN
- mutagenic call [1]: active; positive
- mutagenic call (Species/Cell Type: Human lymphocytes, Assay Type: Sister-chromatid exchange (SCE) in vitro, Assay Code: SCLT, Evaluation Type: Evaluation B (Post-1980)): no conclusion
- mutagenic call [2]: active; positive
- mutagenic call (Species/Cell Type: Human, Assay Type: Sister-chromatid exchange (SCE) in vitro, Assay Code: SC1T, Evaluation Type: Evaluation B (Post-1980)): no conclusion

SMILES: CC(=O)O[C@]1(C(C)=O)CC[C@H]2[C@@H]3C[C@H](C)C4=CC(=O)CC[C@]4(C)[C@H]3CC[C@@]21C
- mutagenic call (Species/Cell Type: Human, Assay Type: Sister-chromatid exchange (SCE) in vitro, Assay Code: SC1+D, Dose Response: With dose response, Evaluation Type: Evaluation B (Post-1980)): active; positive
- mutagenic call (Species/Cell Type: Human, Sex: Male, Assay Type: Sperm morphology, Assay Code: SPH+, Evaluation Type: Evaluation A (Pre-1980)): active; positive
- mutagenic call (Species/Cell Type: Nonhuman, Assay Type: Sister-chromatid exchange (SCE) in vivo, Assay Code: SC3+, Evaluation Type: Evaluation B (Post-1980)): active; positive

SMILES: CN1CCN(CC(=O)N2c3ccccc3C(=O)Nc3cccnc32)CC1
- mutagenic call [3]: no conclusion

SMILES: CCN(CCO)CCCNc1c2ccc(Cl)cc2nc2ccc(OC)cc12
- mutagenic call (Species/Cell Type: Chinese hamster ovary (CHO) cells, Assay Type: Forward gene mutation at the HPRT locus, Assay Code: CHO-, Evaluation Type: Evaluation A (Pre-1980)): inactive; negative
- mutagenic call (Species/Cell Type: Chinese hamster ovary (CHO) cells, Assay Type: Forward gene mutation at the HPRT locus, Assay Code: CHOT, Evaluation Type: Evaluation B (Post-1980)): no conclusion

SMILES: CC1=CC2=C(C=O)C(=O)[C@](C)(O)[C@@H](O)C2=CO1
- mutagenic call [7]: active; positive
